Results reported in ChEMBL document CHEMBL4507268 (2021).

How the values were obtained:
[1] = system: BT-474; experiment: Proliferation assay: BT-474 (breast cancer); assay type: functional, cell-based; details: Homo sapiens
[2] = molecular target: RAC-gamma serine/threonine-protein kinase (Homo sapiens) (UniProt Q9Y243); details: Compound concentration 1000.0 nM
[3] = molecular target: Calcium/calmodulin-dependent protein kinase type II subunit alpha (Homo sapiens) (UniProt Q9UQM7); details: Compound concentration 1000.0 nM
[4] = molecular target: Cyclin-dependent kinase 11A (Homo sapiens) (UniProt Q9UQ88); details: Compound concentration 1000.0 nM
[5] = system: Epidermal growth factor receptor (Homo sapiens), P00533 [UNDEFINED MUTATION]; details: Compound concentration 1000.0 nM
[6] = molecular target: Receptor tyrosine-protein kinase erbB-2 (Homo sapiens) (UniProt P04626); details: Compound concentration 1000.0 nM
[7] = molecular target: Receptor tyrosine-protein kinase erbB-4 (Homo sapiens) (UniProt Q15303); details: Compound concentration 1000.0 nM
[8] = system: Receptor-type tyrosine-protein kinase FLT3 (Homo sapiens), P36888 [UNDEFINED MUTATION]; details: Compound concentration 1000.0 nM
[9] = molecular target: Homeodomain-interacting protein kinase 2 (Homo sapiens) (UniProt Q9H2X6); details: Compound concentration 1000.0 nM
[10] = molecular target: Hormonally up-regulated neu tumor-associated kinase (Homo sapiens) (UniProt P57058); details: Compound concentration 1000.0 nM
[11] = molecular target: Insulin receptor (Homo sapiens) (UniProt P06213); details: Compound concentration 1000.0 nM
[12] = molecular target: Leukocyte tyrosine kinase receptor (Homo sapiens) (UniProt P29376); details: Compound concentration 1000.0 nM
[13] = molecular target: T1, Mitogen-activated protein kinase kinase kinase kinase 3 (Homo sapiens) (UniProt Q8IVH8); details: Compound concentration 1000.0 nM
T1 sequence (whole entry): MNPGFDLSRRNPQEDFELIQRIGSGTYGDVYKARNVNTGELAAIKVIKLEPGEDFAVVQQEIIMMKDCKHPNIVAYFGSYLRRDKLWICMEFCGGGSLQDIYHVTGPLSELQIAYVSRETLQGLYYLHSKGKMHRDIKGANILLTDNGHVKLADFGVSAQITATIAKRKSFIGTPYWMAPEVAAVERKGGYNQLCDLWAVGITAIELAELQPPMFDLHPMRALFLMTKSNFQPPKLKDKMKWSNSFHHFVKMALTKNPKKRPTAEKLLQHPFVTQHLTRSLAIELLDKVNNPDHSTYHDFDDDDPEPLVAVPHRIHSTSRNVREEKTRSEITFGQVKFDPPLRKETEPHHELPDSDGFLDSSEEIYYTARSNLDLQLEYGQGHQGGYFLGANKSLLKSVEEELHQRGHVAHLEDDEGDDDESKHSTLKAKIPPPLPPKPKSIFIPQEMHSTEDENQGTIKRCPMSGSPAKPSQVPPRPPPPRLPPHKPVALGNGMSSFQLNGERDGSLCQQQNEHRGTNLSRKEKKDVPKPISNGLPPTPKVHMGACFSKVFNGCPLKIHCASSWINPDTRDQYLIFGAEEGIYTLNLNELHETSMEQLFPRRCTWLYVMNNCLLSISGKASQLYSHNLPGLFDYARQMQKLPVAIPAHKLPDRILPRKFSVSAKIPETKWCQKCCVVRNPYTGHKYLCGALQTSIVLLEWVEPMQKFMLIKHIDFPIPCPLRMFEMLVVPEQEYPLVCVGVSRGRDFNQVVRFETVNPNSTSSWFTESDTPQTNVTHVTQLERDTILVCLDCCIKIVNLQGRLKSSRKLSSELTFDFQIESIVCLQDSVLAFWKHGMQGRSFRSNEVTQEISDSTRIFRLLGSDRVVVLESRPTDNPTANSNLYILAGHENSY

[14] = molecular target: T2, Dual specificity mitogen-activated protein kinase kinase 3 (Homo sapiens) (UniProt P46734); details: Compound concentration 1000.0 nM
T2 sequence (whole entry): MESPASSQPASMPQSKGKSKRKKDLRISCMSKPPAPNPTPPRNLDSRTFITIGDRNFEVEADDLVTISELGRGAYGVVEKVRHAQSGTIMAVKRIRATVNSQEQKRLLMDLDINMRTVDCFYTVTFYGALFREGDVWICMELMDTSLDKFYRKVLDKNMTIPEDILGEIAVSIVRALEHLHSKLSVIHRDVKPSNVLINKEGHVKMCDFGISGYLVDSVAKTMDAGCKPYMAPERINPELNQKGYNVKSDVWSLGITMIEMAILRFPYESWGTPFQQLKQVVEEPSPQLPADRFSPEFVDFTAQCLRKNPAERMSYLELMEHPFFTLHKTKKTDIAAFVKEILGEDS

[15] = molecular target: Serine/threonine-protein kinase Nek6 (Homo sapiens) (UniProt Q9HC98); details: Compound concentration 1000.0 nM
[16] = molecular target: Serine/threonine-protein kinase PAK 5 (Homo sapiens) (UniProt Q9P286); details: Compound concentration 1000.0 nM
[17] = molecular target: Ribosomal protein S6 kinase alpha-3 (Homo sapiens) (UniProt P51812); details: Compound concentration 1000.0 nM
[18] = molecular target: Serine/threonine-protein kinase SBK1 (Homo sapiens) (UniProt Q52WX2); details: Compound concentration 1000.0 nM
[19] = molecular target: Serine/threonine-protein kinase ULK1 (Homo sapiens) (UniProt O75385); details: Compound concentration 1000.0 nM
[20] = molecular target: Kappa-type opioid receptor (Homo sapiens) (UniProt P41145); details: Compound concentration 10.0 uM
[21] = molecular target: Beta-1 adrenergic receptor (Homo sapiens) (UniProt P08588); details: Compound concentration 10.0 uM

Hormonally up-regulated neu tumor-associated kinase (Homo sapiens), sequence (P57058 whole entry): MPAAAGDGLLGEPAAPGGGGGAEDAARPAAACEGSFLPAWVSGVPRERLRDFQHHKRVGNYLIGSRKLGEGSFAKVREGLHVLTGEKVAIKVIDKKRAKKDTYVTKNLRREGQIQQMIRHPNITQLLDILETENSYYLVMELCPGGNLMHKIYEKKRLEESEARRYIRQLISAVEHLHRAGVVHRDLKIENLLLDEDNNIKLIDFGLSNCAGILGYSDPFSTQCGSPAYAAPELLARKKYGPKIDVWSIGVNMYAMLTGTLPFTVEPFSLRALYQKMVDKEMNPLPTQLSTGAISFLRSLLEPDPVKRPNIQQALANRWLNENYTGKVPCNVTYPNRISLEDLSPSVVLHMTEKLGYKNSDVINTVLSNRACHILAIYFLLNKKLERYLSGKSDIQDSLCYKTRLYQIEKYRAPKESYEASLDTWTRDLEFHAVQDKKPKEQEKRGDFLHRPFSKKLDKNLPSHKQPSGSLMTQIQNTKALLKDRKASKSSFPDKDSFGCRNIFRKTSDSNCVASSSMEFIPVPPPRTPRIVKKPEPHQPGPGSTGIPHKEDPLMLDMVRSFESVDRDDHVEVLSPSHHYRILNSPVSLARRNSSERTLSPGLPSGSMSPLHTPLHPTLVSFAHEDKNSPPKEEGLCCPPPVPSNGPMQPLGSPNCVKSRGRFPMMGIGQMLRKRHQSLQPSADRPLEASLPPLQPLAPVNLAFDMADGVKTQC
Calcium/calmodulin-dependent protein kinase type II subunit alpha (Homo sapiens), sequence (Q9UQM7 whole entry): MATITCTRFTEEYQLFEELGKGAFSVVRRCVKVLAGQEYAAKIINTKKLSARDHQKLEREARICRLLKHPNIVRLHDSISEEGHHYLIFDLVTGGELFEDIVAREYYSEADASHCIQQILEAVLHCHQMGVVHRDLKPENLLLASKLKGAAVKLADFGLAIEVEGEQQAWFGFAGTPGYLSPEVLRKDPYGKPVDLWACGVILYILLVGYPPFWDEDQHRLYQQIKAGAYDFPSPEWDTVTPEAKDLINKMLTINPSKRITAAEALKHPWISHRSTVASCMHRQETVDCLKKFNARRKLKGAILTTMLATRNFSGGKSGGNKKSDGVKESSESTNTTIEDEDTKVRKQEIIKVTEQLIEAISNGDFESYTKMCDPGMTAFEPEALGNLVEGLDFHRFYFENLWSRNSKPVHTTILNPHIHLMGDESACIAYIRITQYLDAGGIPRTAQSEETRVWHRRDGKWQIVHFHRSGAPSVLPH
Homeodomain-interacting protein kinase 2 (Homo sapiens), sequence (Q9H2X6 whole entry, looked up): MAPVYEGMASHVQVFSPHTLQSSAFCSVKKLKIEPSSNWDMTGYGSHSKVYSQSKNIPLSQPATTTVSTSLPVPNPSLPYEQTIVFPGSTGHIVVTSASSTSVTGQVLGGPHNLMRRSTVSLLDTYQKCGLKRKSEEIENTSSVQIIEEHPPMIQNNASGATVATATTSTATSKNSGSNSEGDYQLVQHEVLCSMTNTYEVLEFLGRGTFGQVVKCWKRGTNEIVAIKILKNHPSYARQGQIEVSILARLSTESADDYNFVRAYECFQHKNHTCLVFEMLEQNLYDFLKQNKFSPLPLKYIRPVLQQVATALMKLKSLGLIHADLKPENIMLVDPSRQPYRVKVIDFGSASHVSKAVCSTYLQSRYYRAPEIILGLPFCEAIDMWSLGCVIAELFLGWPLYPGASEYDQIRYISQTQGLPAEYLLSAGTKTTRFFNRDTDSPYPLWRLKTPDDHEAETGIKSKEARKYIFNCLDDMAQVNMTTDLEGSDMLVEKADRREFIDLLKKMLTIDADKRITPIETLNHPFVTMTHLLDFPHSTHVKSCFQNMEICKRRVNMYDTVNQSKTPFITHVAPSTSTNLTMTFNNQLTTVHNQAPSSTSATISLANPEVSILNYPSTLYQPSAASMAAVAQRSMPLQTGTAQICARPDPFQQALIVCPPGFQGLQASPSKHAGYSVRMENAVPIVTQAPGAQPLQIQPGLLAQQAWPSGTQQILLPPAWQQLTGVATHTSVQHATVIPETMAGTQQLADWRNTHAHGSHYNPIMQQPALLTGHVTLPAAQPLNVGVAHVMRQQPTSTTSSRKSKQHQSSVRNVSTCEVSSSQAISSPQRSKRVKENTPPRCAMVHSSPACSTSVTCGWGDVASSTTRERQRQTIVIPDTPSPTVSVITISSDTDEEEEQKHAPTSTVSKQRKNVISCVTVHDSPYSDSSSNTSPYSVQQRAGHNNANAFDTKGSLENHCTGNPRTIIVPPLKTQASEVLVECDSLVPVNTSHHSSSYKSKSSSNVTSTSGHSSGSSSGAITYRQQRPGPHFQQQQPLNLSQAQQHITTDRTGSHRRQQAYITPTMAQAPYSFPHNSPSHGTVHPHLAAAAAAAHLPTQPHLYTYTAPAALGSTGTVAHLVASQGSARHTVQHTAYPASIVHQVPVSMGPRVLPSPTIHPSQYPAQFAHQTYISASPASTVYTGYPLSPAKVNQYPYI
Serine/threonine-protein kinase ULK1 (Homo sapiens), sequence (O75385 whole entry): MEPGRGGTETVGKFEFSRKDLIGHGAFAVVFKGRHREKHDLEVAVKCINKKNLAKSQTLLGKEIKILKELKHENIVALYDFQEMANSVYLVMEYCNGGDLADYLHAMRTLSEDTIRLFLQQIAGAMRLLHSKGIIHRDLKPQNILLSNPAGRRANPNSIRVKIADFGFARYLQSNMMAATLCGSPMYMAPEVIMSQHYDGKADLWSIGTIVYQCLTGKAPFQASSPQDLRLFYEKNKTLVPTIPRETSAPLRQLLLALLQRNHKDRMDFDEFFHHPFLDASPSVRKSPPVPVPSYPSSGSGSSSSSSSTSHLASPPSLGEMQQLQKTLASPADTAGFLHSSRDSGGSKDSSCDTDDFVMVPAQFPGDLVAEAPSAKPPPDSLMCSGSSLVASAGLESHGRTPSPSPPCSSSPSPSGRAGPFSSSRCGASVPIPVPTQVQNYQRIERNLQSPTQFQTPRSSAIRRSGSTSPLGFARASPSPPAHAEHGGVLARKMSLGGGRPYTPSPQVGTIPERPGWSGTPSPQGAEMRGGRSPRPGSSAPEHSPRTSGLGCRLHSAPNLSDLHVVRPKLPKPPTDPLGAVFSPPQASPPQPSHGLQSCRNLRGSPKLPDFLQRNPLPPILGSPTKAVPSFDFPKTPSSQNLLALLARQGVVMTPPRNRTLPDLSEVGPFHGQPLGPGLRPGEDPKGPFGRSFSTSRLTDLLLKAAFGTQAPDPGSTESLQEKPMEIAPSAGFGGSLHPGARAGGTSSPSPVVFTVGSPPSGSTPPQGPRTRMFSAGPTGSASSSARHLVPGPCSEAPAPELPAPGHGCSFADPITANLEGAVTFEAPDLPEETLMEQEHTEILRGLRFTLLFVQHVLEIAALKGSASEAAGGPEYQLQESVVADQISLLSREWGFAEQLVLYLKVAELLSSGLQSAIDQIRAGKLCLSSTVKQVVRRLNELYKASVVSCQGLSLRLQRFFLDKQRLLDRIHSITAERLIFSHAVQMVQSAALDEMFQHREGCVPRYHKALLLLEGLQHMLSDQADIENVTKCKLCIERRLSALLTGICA
Epidermal growth factor receptor (Homo sapiens), P00533 [UNDEFINED MUTATION], sequence (P00533 whole entry, looked up, change not shown): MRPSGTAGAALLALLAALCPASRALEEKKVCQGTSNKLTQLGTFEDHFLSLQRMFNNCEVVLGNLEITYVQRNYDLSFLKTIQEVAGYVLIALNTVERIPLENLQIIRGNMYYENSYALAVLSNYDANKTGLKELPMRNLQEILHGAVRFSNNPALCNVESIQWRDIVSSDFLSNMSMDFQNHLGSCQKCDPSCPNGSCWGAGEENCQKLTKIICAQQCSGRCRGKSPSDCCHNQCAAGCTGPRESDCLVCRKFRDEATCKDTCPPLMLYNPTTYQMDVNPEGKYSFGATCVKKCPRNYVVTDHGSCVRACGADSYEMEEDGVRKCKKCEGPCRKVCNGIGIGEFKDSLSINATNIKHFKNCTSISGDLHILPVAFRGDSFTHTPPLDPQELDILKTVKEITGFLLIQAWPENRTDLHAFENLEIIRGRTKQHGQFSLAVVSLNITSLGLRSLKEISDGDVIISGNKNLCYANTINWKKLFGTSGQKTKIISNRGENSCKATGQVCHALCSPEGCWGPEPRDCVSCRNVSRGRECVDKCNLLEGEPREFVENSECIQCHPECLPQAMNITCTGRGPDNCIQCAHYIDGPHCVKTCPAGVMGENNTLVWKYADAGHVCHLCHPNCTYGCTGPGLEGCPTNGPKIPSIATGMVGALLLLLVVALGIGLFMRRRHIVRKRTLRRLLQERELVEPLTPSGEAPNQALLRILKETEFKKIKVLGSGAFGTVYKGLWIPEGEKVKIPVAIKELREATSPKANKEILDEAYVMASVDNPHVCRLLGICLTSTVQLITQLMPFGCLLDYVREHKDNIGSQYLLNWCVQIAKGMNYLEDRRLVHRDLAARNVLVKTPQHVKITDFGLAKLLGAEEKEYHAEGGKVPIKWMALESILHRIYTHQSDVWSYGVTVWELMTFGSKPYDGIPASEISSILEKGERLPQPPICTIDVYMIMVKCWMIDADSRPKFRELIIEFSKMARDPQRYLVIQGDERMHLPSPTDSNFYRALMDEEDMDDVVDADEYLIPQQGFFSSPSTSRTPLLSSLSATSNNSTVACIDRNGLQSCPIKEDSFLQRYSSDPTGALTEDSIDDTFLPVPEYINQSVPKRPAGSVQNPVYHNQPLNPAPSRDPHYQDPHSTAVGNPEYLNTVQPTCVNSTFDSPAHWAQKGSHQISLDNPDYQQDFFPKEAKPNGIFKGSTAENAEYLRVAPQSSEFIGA
Serine/threonine-protein kinase SBK1 (Homo sapiens), sequence (Q52WX2 whole entry): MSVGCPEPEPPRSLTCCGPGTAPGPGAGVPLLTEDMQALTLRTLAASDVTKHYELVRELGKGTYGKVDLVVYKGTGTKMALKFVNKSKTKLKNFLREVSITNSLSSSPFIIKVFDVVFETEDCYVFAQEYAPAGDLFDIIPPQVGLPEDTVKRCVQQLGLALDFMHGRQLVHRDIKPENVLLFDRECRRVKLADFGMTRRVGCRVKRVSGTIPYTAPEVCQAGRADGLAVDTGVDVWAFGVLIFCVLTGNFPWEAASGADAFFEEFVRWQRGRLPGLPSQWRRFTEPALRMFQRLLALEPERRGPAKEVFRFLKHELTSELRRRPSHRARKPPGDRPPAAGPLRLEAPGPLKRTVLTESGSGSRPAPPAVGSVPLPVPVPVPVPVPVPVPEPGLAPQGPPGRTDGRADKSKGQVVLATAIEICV

SMILES	IC50 [1]	residual activity [2] [%]	residual activity [3] [%]	residual activity [4] [%]	residual activity [5] [%]	residual activity [6] [%]	residual activity [7] [%]	residual activity [8] [%]	residual activity [9] [%]	residual activity [10] [%]	residual activity [11] [%]	residual activity [12] [%]	residual activity [13] [%]	residual activity [14] [%]	residual activity [15] [%]	residual activity [16] [%]	residual activity [17] [%]	residual activity [18] [%]	residual activity [19] [%]	inhibition [20] [%]	further results
Cc1nc(C2CCN(C(=O)c3ccc(OC(F)(F)F)cc3N)CC2)c2ncc(N3CCN(C)CC3)cc2n1 [BAY-693]	27.6 µM (not active)	95	93	100	100	100	100	100	93	100	93	86	100	98	100	99	100	40	49	21.2	inhibition [21]: 17.9%
CN1CCN(c2cnc3c(C4CCN(C(=O)c5ccc(OC(F)(F)F)cc5N)CC4)ncnc3c2)CC1 [BAY-885]	> 30 µM (not active)	93	69	61	100	100	79	88	100	95	88	49	100	94	92	100	85	100	100	9.37	inhibition [21]: 12.6%
